{
  "source": "paper PMC5054363",
  "about": "(Scientific Reports, 2016)",
  "key": {"[1]": {"test_system": "HGC27-APL-R gastric carcinoma cells (plitidepsin-resistant)", "test": "Cell growth inhibition (MTT, 72 h), HGC27-APL-R", "type": "cell-based", "conditions": "highest concentration tested 100 nM"}, "[2]": {"test_system": "HGC27 gastric carcinoma cells", "test": "Cell growth inhibition (MTT, 72 h), HGC27", "type": "cell-based", "conditions": "parental HGC27, 72 h", "description": "(§1) HeLa cervix adenocarcinoma (ATCC CCL-2), K-562 chronic myelogenous leukemia (ATCC CCL-243), NCI-H460 lung cancer (ATCC HTB-177) and HGC27 gastric cancer (ATCC CRL-2506) cells were obtained from ATCC (Manassas, VA, USA) and cultured following standard procedures. Viability assays were performed utilizing 3-(4,5-dimethylthiazol-2-yl)-2,5-diphenyltetrazolium bromide (MTT) according to methods described elsewhere[46]."}, "[3]": {"test_system": "NCI-H460 non-small cell lung cancer cells", "test": "Cell growth inhibition (MTT, 72 h), NCI-H460", "type": "cell-based", "conditions": "parental NCI-H460, 72 h", "description": "as §1"}, "[4]": {"test_system": "eEF1A2", "test": "GDP/GTP exchange in eEF1A2", "type": "biochemical", "conditions": "with EF1B, data not shown"}, "[5]": {"test_system": "subcellular and chromatographic fractions of K-562 cell lysate", "test": "Binding of [14C]-plitidepsin to K-562 lysate fractions", "protocol": "Figure 4 Identification of the plitidepsin-binding protein in a K-562 cells lysate. […] In the horizontal axis “P” and “S” mean “pellet” and “supernatant”, respectively, with the figure aside denoting the relative centrifugal force (in thousands of g) used to obtain such fraction. Data (in dpm per mg of protein) represent the mean of three independent samples with error bars showing S.D. * means p < 0.05. (C) Anion-exchange chromatography on DEAE, flow rate 5 mL/min. (D) Cation-exchange chromatography on SP, flow rate 2.5 mL/min. (E) Size exclusion chromatography on Superdex 200, flow rate 4 mL/min. Representative fractions (4-mL) from each portion of the eluates were analyzed for their binding to [^14C]-plitidepsin in the presence (grey bars, non-specific binding) or absence (black bars, total binding) of a 20-fold excess of unlabeled drug. Only fractions showing significant specific binding to the radioligand were pooled and progressed to the next chromatographic step. In all cases absorbance is expressed in mAU and conductivity in mS/cm.\nThe rest of the peptides detected in this material corresponded to fragments whose sequences are common to both isoforms, thus discarding the presence of any other protein.\nAfter 1 h incubation at room temperature 400 μL of each tube were withdrawn and processed as described above."}, "[6]": {"test_system": "sphingosine kinase-1 (SK1)", "test": "Direct effect on SK1", "type": "biochemical", "conditions": "preliminary, data not shown"}, "[7]": {"test_system": "multiple myeloma cells", "conditions": "cited from earlier work", "excerpt": "For example, it is known that eEF1A is able to directly increase the activity of sphingosine kinase-1 (SK1), an effect that is related to oncogenesis. […] The hijacking of eEF1A with the consequent reduction of SK1 activity has already been describe ..."}, "[8]": {"test_system": "HeLa-APL-R cervical cancer cells (plitidepsin-resistant)", "set-up": "method as in PMID 15365569", "conditions": "72 h, Fig. 1A, reported as previously described; cited from earlier work"}, "[9]": {"test_system": "K-562 chronic myelogenous leukemia cells", "test": "Cell growth inhibition (72 h), K-562", "type": "cell-based", "conditions": "K-562, 72 h"}, "[10]": {"test_system": "eEF1A2 in HeLa protein extract", "test": "DARTS assay (subtilisin digestion of HeLa protein extract)", "type": "binding, human", "conditions": "plitidepsin 1 h, subtilisin 30 min, room temperature, Western blot", "protocol": "(A) Saturation binding curve. […] (B) Dissociation kinetics of [14C]-plitidepsin from eEF1A2.\nEach sample was then digested with subtilisin for 30 min at room temperature.\nProtein extracts from HeLa cells were obtained by treating them with lysis buffer (see above) and kept on ice for 15 min. Cell extracts were cleared by centrifugation at 14,000 × g for 15 min at 4 °C. […] Extracts were digested with the indicated concentrations of Subtilisin (EC 3.4.21.62) for 30 min at RT. […] Quantitation of the eEF1A2 bands was performed with the Image Lab v5.2.1 software (Bio-Rad, Hercules, CA, USA)."}, "[11]": {"test_system": "HeLa cells ectopically overexpressing eEF1A2-GFP", "test": "Antiproliferative activity in HeLa overexpressing eEF1A2-GFP", "type": "cell-based, human", "conditions": "HeLa overexpressing eEF1A2-GFP (Supplementary Figure 1)", "protocol": "For transfection and selection of cell clones, HeLa and HeLa-APL-R cells were seeded in 24 well plates at 40% confluence and allowed to stand for 24 hours at 37 °C and 5% CO2. Before transfection, the culture medium was changed to Opti-MEM (Life Technologies, Carlsbad, CA, USA). Plasmids encoding eEF1A2-GFP were incubated with Lipofectamine (Life Technologies, Carlsbad, CA, USA) under the recommendations of the manufacturer and added to the cell medium. After 24 h incubation at 37 °C and 5% CO2, the culture medium was replaced by the standard DMEM supplemented with 2 mg/ml of G-418 for the selection of clones expressing the exogenous gene. Clones were further selected following the expression of the GFP-fused protein through fluorescence microscopy.\nLEGENDS TO SUPPL EMENTARY FI GURES\nHeLa and HeLa-APL -R cells.\nautofluorescence AF (grey).\nGFP at different concentrations identified in the phasor plot.\nSupplementary Figure 3. FRET efficiency estimation from FRET “Dn” and FRET\nof incubation with 10 nM plitidepsin- DMAC. Clusters of phasors corresponding to the […]"}, "[12]": {"test_system": "sphingosine kinase-1 (SK1)", "test": "Sphingosine kinase-1 activity in tumor cells", "type": "cell-based", "conditions": "preliminary, data not shown"}, "[13]": {"molecular_target": "eEF1A2 purified from rabbit muscle (Oryctolagus cuniculus, UniProt Q71V39)", "sequence (Q71V39 whole entry)": "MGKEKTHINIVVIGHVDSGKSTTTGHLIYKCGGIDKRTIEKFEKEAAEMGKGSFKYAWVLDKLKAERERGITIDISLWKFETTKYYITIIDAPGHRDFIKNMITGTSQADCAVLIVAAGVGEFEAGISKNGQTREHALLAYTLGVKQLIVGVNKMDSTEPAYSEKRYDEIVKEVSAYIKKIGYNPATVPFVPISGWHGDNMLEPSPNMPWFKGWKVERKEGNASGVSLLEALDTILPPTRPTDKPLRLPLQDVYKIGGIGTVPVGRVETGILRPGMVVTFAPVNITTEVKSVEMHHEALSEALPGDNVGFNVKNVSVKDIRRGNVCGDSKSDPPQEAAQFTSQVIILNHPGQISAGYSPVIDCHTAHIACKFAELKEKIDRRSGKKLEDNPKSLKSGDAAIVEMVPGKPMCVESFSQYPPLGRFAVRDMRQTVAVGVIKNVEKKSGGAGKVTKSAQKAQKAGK", "test": "biochemical", "protocol": "(A) Saturation binding curve. Protein and radioligand were incubated for 1 h at room temperature and samples were processed as described in the text. […] The experiment was performed as described in the text, and the experimental points were fitted to a single exponential decay equation by non-linear regression. […] Extracts were then digested with the indicated concentrations of subtilisin for 30 min at room temperature. Samples were resolved by SDS-PAGE and the degradation of eEF1A2 analyzed by Western blot; quantitation of the bands from the DARTS assay was performed with the ImageJ software.\nAt the selected times after this last addition, 400 μL of each sample were withdrawn and processed as above."}},
  "note": "*1 amine or outer side, *2 acyl side, *3 side chain or, on linkers, in order; H or OH if unused. Where a SMILES comes first, the peptide text is derived from it. Bridges are numbered along the chain shown (N, C = ends). [ ]: non-standard residue; d: D form. The star is where a group is joined. X1 = CC[C@H](C)[C@@H](N[*:1])[C@@H](O)CC(=O)O[C@H](C(=O)[C@H](C)C(=O)[*:2])C(C)C; NMeY = CN[C@@H](Cc1ccc(O)cc1)C(=O)O; dNMeL = CN[C@H](CC(C)C)C(=O)O; Pyruvoyl = CC(=O)C(=O)*",
  "data": [
    {"smiles": "CC[C@H](C)[C@H]1NC(=O)[C@@H](NC(=O)[C@@H](CC(C)C)N(C)C(=O)[C@@H]2CCCN2C(=O)C(C)=O)[C@@H](C)OC(=O)[C@H](Cc2ccc(OC)cc2)N(C)C(=O)[C@@H]2CCCN2C(=O)[C@H](CC(C)C)NC(=O)[C@@H](C)C(=O)[C@H](C(C)C)OC(=O)C[C@@H]1O", "note": "[plitidepsin, Plitidepsin] (Pyruvoyl-P[dNMeL]T[X1]LP[NMeY](Me); ester 3-C (inferred))", "values": [
      {"measurement": "effect on cell growth", "setting": "[1]", "result": "did not cause any effect on cell growth"},
      {"measurement": "IC50", "setting": "[2]", "result": 900, "unit": "pM"},
      {"measurement": "IC50", "setting": "[3]", "result": 200, "unit": "pM"},
      {"measurement": "effect on GDP/GTP exchange in eEF1A2", "setting": "[4]", "result": "very modest"},
      {"measurement": "proteins detected as capable of binding plitidepsin", "setting": "[5]; K-562 lysate, MALDI-TOF/TOF identification", "result": "both isoforms of eEF1A are the only proteins"},
      {"measurement": "specific binding by size-exclusion peaks", "setting": "[5]; Superdex 200 peaks, fourth peak eluting at 80 min, ca. 50 kDa", "result": "only the fourth one"},
      {"measurement": "direct effect on SK1", "setting": "[6]", "result": "not due to a direct effect of the drug on SK1"},
      {"measurement": "combination effect with bortezomib", "setting": "[7]; with bortezomib", "result": "synergistic"},
      {"measurement": "combination effect with lenalidomide", "setting": "[7]; with lenalidomide", "result": "synergistic"},
      {"measurement": "combination effect with thalidomide", "setting": "[7]; with thalidomide", "result": "synergistic"},
      {"measurement": "IC50", "setting": "[8]", "result": "> 100000", "unit": "pM"},
      {"measurement": "IC50", "setting": "[9]", "result": 9350, "unit": "pM"},
      {"measurement": "protection of eEF1A2 from digestion by subtilisin", "setting": "[10]", "result": "protected eEF1A2 from digestion by subtilisin in a concentration-dependent manner"},
      {"measurement": "additional sensitization to the drug", "setting": "[11]", "result": "did not show any additional sensitization"},
      {"measurement": "SK1 activity in tumor cells", "setting": "[12]", "result": "decrease the activity of this enzyme in tumor cells"},
      {"measurement": "koff", "setting": "[13]; read-out: kOFF (first-order rate constant of dissociation)", "result": "0.0019 ± 8e-07", "unit": "s⁻¹"},
      {"measurement": "residence time", "setting": "[13]; read-out: target residence time, from dissociation kinetics (kOFF), rabbit eEF1A2", "result": 8.8, "unit": "min"}
    ]}
  ]
}
